Laboratory results from ChEMBL document CHEMBL1128610, “Synthesis of potential -lactam antibiotics” (1995).
Calls of active or inactive are those of the source. No cut-off for these calls is given here.

Key:
Staphylococcus aureus [1] = assay: Minimum inhibitory concentration required for antibacterial activity against Staphylococcus aureus ATCC 29213; assay type: functional
Escherichia coli [2] = assay: Minimum inhibitory concentration required for antibacterial activity against Escherichia coli ATCC 25922; assay type: functional
Escherichia coli [3] = assay: Compound was evaluated for antibacterial activity against Escherichia coli ATCC 25922; Inactive; assay type: functional, organism-based
Staphylococcus aureus [4] = assay: Compound was evaluated for antibacterial activity against Staphylococcus aureus ATCC 29213; Inactive; assay type: functional, organism-based

Row | SMILES | MIC (Staphylococcus aureus [1]) [µg/mL] | MIC (Escherichia coli [2]) [µg/mL] | MIC (Escherichia coli [3]) | MIC (Staphylococcus aureus [4])
1 | CO/N=C(\C(=O)N[C@H]1CON(C(Oc2ccc(F)cc2)C(=O)O)C1=O)c1csc(N)n1 (stereo in doubt; 4d) | – | – | inactive | inactive
2 | CO/N=C(\C(=O)N[C@H]1CON(C(Oc2ccc(F)cc2)C(=O)O)C1=O)c1csc(N)n1 (stereo in doubt; 4e) | – | – | inactive | inactive
3 | CO/N=C(\C(=O)N[C@H]1CON(C(Oc2ccc(Cl)cc2)C(=O)O)C1=O)c1csc(N)n1 (stereo in doubt; 4f) | – | – | inactive | inactive
4 | CO/N=C(\C(=O)N[C@H]1CON(C(Oc2ccc(Cl)cc2)C(=O)O)C1=O)c1csc(N)n1 (stereo in doubt; 4g) | – | – | inactive | inactive

Now from value to molecule:

Row | MIC (Staphylococcus aureus [1]) [µg/mL] | MIC (Escherichia coli [2]) [µg/mL] | MIC (Escherichia coli [3]) | MIC (Staphylococcus aureus [4]) | SMILES
5 | > 1000 | > 1000 | – | – | CCOC(C(=O)[O-])N1OC[C@H](NC(=O)c2ccccc2)C1=O.[K+] (stereo partly specified)
6 | > 500 | > 500 | – | – | O=C(COc1ccccc1)N[C@H]1CON(S(=O)(=O)[O-])C1=O.[K+]
7 | – | – | inactive | inactive | CO/N=C(\C(=O)N[C@H]1CON(C(Oc2ccccc2)C(=O)O)C1=O)c1csc(N)n1 (stereo in doubt; 4b)
8 | – | – | inactive | inactive | CO/N=C(\C(=O)N[C@H]1CON(C(Oc2ccccc2)C(=O)O)C1=O)c1csc(N)n1 (stereo in doubt; 4c)
